In ChEMBL document CHEMBL6182844, “LC-MS Guided Discovery and Biosynthetic Pathway of Coprisamides E-H, Cinnamic Acid-Containing Metabolites from the Marine Algae-Derived Streptomyces thermolineatus NAK03196” (2025) one finds inhibition and MIC data, which are given here for two compounds.

The term MIC denotes the lowest concentration that inhibits growth of the organism.

Details in all cases: time 12-16 hrs
Assay [1] relates to Staphylococcus aureus. In words: Antibacterial activity against Staphylococcus aureus ATCC 29213 assessed as inhibition on the growth incubated for 12 to 16 hrs by paper disc diffusion assay. The class given is functional, organism-based.
In another assay the test system is Pseudomonas aeruginosa. In words: Antibacterial activity against Pseudomonas aeruginosa assessed as inhibition on the growth incubated for 12 to 16 hrs by paper disc diffusion assay. The class given is functional, organism-based.
In assay [2] the test system is Staphylococcus aureus. The experiment in a line: Antibacterial activity against the Staphylococcus aureus 16339 incubated for 12 to 16 hrs by paper disc diffusion assay. The assay is classed as functional. (In general: A growth-free zone around the sample is the usual read-out of agar diffusion tests.)
In a further assay the test system is Enterococcus faecalis. The experiment in a line: Antibacterial activity against Enterococcus faecalis assessed as inhibition on the growth incubated for 12 to 16 hrs by paper disc diffusion assay. The class given is functional, organism-based.
Assay [3] has as its system Staphylococcus aureus. In words: Antibacterial activity against methicillin-resistant Staphylococcus aureus ATCC 43300 assessed as inhibition on the growth incubated for 12 to 16 hrs by paper disc diffusion assay. The class given is functional, organism-based.
In another assay the test system is Micrococcus luteus. In words: Antibacterial activity against Micrococcus luteus assessed as inhibition on the growth incubated for 12 to 16 hrs by paper disc diffusion assay. The assay is classed as functional, organism-based.
Another assay relates to Klebsiella pneumoniae. In words: Antibacterial activity against Klebsiella pneumoniae assessed as inhibition on the growth incubated for 12 to 16 hrs by paper disc diffusion assay. The class given is functional, organism-based.
Another assay concerns Acinetobacter baumannii. In words: Antibacterial activity against Acinetobacter baumannii assessed as inhibition on the growth incubated for 12 to 16 hrs by paper disc diffusion assay. The class given is functional, organism-based.
In a further assay the test system is Escherichia coli. The experiment in a line: Antibacterial activity against Escherichia coli assessed as inhibition on the growth incubated for 12 to 16 hrs by paper disc diffusion assay. The assay is classed as functional, organism-based.

≈ marks a conversion by molar mass, not a printed value. Calls of active or inactive are those of the source. No cut-off for these calls is given here.

Take `C/C=C/C=C/C=C\c1ccccc1/C=C/C(=O)N[C@H](C)C(=O)N[C@@H]1COC(=O)[C@H](CC(=O)O)NC(=O)[C@H](CNC(=O)[C@@H](N)C(C)C)NC(=O)[C@H](C(C)C)NC(=O)[C@@H](CC(C)C)NC1=O`: the inhibition entry with Staphylococcus aureus [1], in the assay with Pseudomonas aeruginosa, with Enterococcus faecalis, in the assay with Staphylococcus aureus [3], in the assay on Micrococcus luteus and in the assay with Klebsiella pneumoniae was “inactive” throughout. In addition, the inhibition entry in the assay on Acinetobacter baumannii and with Escherichia coli was “inactive” each time. Besides, inhibition of growth in the assay with Staphylococcus aureus [2] (MIC) required 890 µg/mL (≈ 997 µM).

In the case of `CN(C)[C@@H]1C(O)=C(C(N)=O)C(=O)[C@@]2(O)C(O)=C3C(=O)c4c(O)cccc4[C@@](C)(O)[C@H]3C[C@@H]12` [TETRACYCLINE], in the assay with Staphylococcus aureus [2], the MIC was determined as 10 µg/mL (≈ 22.5 µM).
